“Also recorded” adds a separate entry of the source.
Key:
[1] = target: 5-HT2A receptor (Homo sapiens, UniProt P28223); experiment: 5-HT2A receptor binding; conditions: versus fluphenazine (ICI-1175), FIG. 8
Protocol: (§1) The methods employed in this study have been adapted from the scientific literature to maximize reliability and reproducibility. Where presented, IC50 values were determined by a non-linear, least squares regression analysis using the DATA ANALYSIS TOOLBOX (MDL Information Systems, San Leandro, Calif., USA). Where inhibition constants (Ki) are presented, the Ki values were calculated using the equation of Cheng and Prusoff (Cheng, Y., Prusoff, W. H., Biochem. Pharmacol. 22:3099-3108, 1973) or equivalent using the observed IC50 of the tested compound, the concentration of ligand employed in the assay, and historical values for the KD of the ligand.
(§2) The experiments include contacting a serotonin type 1B, 2A, 2B, 2C, 3, 4, 6, and 7 receptor with a test compound and comparing the level of binding of serotonin or a control ligand with that serotonin type 1B, 2A, 2B, 2C, 3, 4, 6, and 7 receptor with the level of serotonin binding or control ligand binding with an otherwise identical serotonin type 1B, 2A, 2B, 2C, 3, 4, 6, and 7 receptor not contacted with the test compound. […] The skilled artisan would also appreciate, in view of the disclosure provided herein, that standard binding assays known in the art, or those to be developed in the future, can be used to assess the binding of serotonin or a control ligand with a serotonin type 1B. 2A, 2B, 2C, 3, 4, 6, and 7 receptor in the presence or absence of the test compound to identify a useful compound.
(§3) The next set of experiments was designed to assess the selective binding of the test compounds to 5-HT receptors. ICI-848, ICI-1259, and ICI-1260 were tested against fluphenazine (ICI-1175) to determine selective binding to 5-HT receptors.

[2] = target: T1, 5-HT1A receptor (Homo sapiens, UniProt P08908); experiment: 5-HT1A receptor binding; conditions: versus fluphenazine (ICI-1175), FIG. 8
T1 sequence (P08908 1-422): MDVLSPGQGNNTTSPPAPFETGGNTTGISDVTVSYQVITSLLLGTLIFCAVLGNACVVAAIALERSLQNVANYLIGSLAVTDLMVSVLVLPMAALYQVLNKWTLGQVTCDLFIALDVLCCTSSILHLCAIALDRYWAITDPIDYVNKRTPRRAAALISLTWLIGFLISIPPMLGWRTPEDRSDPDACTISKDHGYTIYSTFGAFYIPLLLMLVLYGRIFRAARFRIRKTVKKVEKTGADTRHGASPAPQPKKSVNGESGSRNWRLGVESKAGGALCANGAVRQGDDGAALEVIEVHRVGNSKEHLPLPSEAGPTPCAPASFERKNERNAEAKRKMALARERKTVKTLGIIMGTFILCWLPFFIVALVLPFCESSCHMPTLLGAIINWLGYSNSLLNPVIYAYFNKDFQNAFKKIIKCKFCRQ
Protocol: as §1, §3

[3] = target: histamine type 1 receptor (Homo sapiens, UniProt P35367); experiment: Binding to non-5-HT receptors: histamine type 1 receptor; conditions: FIG. 12
Protocol: as §1
The next set of experiments was designed to assess the selective binding of the test compounds to non-5-HT receptors. The compounds tested are as follows: ICI-735, 848, 849, 1259, and 1260. […] It was also observed that the compounds that bound well to 5-HT4 receptor also bound well to histamine type 1 receptor.

[4] = target: 5-HT4 receptor (Homo sapiens, UniProt Q13639); experiment: 5-HT4 receptor binding; conditions: versus fluphenazine (ICI-1175), FIG. 8
Protocol: as §1, §2, §3
The next set of experiments was designed to assess the Ki values of the tested compounds.

[5] = tested on: B-cell neoplastic cell line RPMI 8226; experiment: Inhibition of proliferation of RPMI cells; format: cell-based; conditions: RPMI cell viability, FIG. 1
Description: The next set of experiments was designed to assess compounds that have low levels of brain penetration for the ability of the test compounds to inhibit cellular proliferation. An exemplary in vitro assay is to screen for the ability of the test compounds to inhibit proliferation of the B-cell neoplastic cell line RPMI 8226 (a plasmacytoma derived from a multiple myeloma patient (Matsuoka, et al., 1967, Proc. Soc. Exp. Biol. Med. 125: 1246-1250). However other cell line can be used such as, U266 (established from an IgE-secreting myeloma patient (Nilsson, et al., 1970, Clin. Exp. Immunol., 7: 477-489) and ARH77 (an EBV transformed plasma cell leukemia (Burk, et al., 1978, Cancer Res. 38: 2508-2513).
FIG. 1 is a graph depicting the effects on the test compounds on RPMI cell viability.

[6] = tested on: rat model of collagen-induced arthritis; experiment: Rat model of collagen-induced arthritis, ankle diameter; format: in vivo; conditions: for reduction of ankle diameter: 10 mg/kg ip daily, about 3 days, caliper measurement; for efficacy in reducing ankle diameter compared with Enbrel: rheumatoid arthritis rat model, versus Enbrel
Protocol: The next set of experiments was designed to test the ability of the compounds of the invention on a rat model of collagen-induced arthritis. Briefly, Female Lewis rats were immunized with bovine type 2 collagen 2 mg/mL in 0.01N HAc mixed 1:1 w/ FIA injected id 0.1 mL at each of three sites on back (Rosloniec, E. F., A. H. Kang, L. K. Myers, M. A. Cremer. 1996. Collagen-induced arthritis. R. Coico, and E. Shevach, eds. Current Protocols in Immunology 15.5.1. Weily & Sons, New York.).
FIG. 2 depicts a schematic of the collagen-induced arthritis protocol. Briefly, a test compound of the invention is delivered ip at 10 mg/kg daily, for about 3 days.
FIG. 4 depicts ICI 1260, 1259, 848, 849, 761, 715, and 847 with respect to Enbrel. Additional testing for the effectiveness of compounds ICI 1260, 1259, 848, 849, 761, 715, and 847 at various concentrations (10 mg/kg, 2 mg/kg, 0.4 mg/kg) were conducted, as illustrated in FIGS. 5A-5G. A dose response curve was constructed to illustrate the efficacy of the seven compounds (FIG. 6).

[7] = tested on: Female Lewis rats; experiment: Toxicity in Female Lewis rats; format: in vivo; conditions: 100 mg/kg ip, in comparison with PBS control
Protocol: The next set of experiments was designed to determine the toxicity of the compounds. Each compound was administered to Female Lewis rats at a dose of 100 mg/kg via ip administration.

Chain of 5-HT4 receptor (Q13639 whole entry): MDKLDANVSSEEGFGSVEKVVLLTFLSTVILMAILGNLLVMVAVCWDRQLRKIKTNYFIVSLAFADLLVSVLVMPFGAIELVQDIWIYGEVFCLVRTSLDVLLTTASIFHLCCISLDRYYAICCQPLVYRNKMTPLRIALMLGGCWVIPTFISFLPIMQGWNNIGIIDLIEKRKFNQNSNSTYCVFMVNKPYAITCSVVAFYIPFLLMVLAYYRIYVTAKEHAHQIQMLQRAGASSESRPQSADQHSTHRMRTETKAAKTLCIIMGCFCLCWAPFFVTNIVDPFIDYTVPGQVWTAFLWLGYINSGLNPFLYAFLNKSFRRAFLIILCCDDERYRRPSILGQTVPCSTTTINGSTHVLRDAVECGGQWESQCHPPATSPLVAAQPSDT
Chain of 5-HT2A receptor (P28223 whole entry): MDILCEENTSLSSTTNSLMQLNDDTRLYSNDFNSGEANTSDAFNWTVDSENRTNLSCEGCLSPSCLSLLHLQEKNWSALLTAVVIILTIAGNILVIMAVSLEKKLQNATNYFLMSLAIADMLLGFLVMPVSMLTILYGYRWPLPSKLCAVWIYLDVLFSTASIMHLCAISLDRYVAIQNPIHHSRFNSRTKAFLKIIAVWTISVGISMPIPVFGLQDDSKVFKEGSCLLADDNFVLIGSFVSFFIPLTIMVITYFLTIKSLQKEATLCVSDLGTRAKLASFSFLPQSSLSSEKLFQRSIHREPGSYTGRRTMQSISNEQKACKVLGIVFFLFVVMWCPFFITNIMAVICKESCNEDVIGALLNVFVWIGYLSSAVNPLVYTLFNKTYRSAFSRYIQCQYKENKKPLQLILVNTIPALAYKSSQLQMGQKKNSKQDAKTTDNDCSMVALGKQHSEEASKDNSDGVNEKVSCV
Chain of histamine type 1 receptor (P35367 whole entry): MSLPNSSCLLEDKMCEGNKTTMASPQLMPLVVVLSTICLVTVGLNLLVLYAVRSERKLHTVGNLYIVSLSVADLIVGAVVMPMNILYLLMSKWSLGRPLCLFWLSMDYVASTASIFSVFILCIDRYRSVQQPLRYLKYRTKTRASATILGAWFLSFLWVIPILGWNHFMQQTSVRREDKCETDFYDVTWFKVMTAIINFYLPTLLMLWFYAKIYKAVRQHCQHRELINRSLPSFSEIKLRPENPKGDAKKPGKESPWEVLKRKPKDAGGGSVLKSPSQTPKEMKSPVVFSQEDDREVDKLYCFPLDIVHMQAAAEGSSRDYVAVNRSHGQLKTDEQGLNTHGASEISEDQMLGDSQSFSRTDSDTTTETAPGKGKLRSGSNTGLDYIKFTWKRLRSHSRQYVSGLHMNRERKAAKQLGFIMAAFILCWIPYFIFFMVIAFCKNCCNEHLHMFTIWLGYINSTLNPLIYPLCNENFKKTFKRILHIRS

Row | Compound | binding to 5-HT2A receptor compared to fluphenazine [1] | binding to 5-HT1A receptor compared to fluphenazine [2] | binding to histamine type 1 receptor [3] | binding to 5-HT4 receptor compared to fluphenazine [4] | ability to inhibit proliferation of RPMI cells [5] | reduction of ankle diameter ([6]; listed as ICI-1259) | efficacy in reducing ankle diameter compared with Enbrel [6] | toxicity [7] | ability to inhibit proliferation of RPMI cells ([5]; listed as ICI-1260) | reduction of ankle diameter ([6]; listed as ICI-1260)
1 | CNCC(=O)NCCCN1CCC(CCCN2c3ccccc3Sc3ccc(C(F)(F)F)cc32)CC1 [ICI-01259] | decreased binding | decreased binding | able to bind histamine type 1 receptor | increased binding | able to inhibit the proliferation of RPMI cells | decrease the ankle diameter to a desirable level; also recorded: most desirable reduction of ankle diameter | more effective in reducing the ankle diameter than Enbrel | not toxic | – | –
2 | NCC(=O)NCCCN1CCC(CCCN2c3ccccc3Sc3ccc(C(F)(F)F)cc32)CC1 [ICI-01260] | decreased binding | decreased binding | able to bind histamine type 1 receptor | increased binding | – | – | more effective in reducing the ankle diameter than Enbrel | not toxic | able to inhibit the proliferation of RPMI cells | decrease the ankle diameter to a desirable level; also recorded: most desirable reduction of ankle diameter

Reference: patent US20100035858A1, “Novel Compositions and Methods for Binding and Inhibiting 5-HT4 Receptor” (Immune Control, Inc., priority 2008, published 2010)
